Results on ten compounds are retold here after patent US20180118699A1, “SK AND IK CHANNEL AGONISTS FOR TREATMENT OF HEART FAILURE” (THE TRUSTEES OF COLUMBIA UNIVERSITY IN THE CITY OF NEW YORK, priority 2015, published 2018).

For data set [1], the system named is mesenteric resistance vessels. Put plainly: Dilation of cannulated mesenteric resistance vessels.
Method: Vessels were mounted onto cannulas and equilibrated at 80 mm Hg. […] The vessels were continuously constricted with 1 μM phenylephrine. […] At the conclusion of the experiment, the vessels were superfused in a Ca^2+-free solution to determine maximal dilation. Data shown are mean+s.e.m., relative to maximal dilation determined in Ca^2+-free solution. N=4.
Another data set concerns the target T1, human KCNN3 (SK3) (Homo sapiens, UniProt P0DP23+Q9UGI6).
T1 construct: GFP; expressed in transfected cells; host or cells: HEK293
The data set is described as follows: Whole-cell patch clamp of KCa potassium channel activator activity in transfected HEK293 cells. Type of data set: cell-based. The conditions noted are these: HEK293 SK3 whole-cell currents. An excerpt:
Currents were activated by 200 msec depolarizing ramps between −120 mV and +30 mV, from a holding potential of −90 mV, and then deactivated by repolarization to the holding potential. […] Colored bars indicate application of the XX-03-64 and XX-03-56 agonists.
Currents were activated by 200 msec depolarizing ramps between −120 mV and +30 mV, from a holding potential of −90 mV, and then deactivated by repolarization to the holding potential. Voltage ramps were applied every 5 seconds. The bath solution was 140 mM NaCl, 4 mM KCl, 0.1 mM CaCl2, 3 mM Mg Cl2, 10 mM HEPES (pH 7.4) and the pipette solution was 150 mM KCl, 5 mM TES (pH 7.2), 2 mM HEDTA, and 1 μM free Ca^2+. The free Ca^2+ concentration was calculated using the Max Chelator program and confirmed using a Ca^2+ electrode (Orion). Agonists were superfused in the bath solution.
On the technique in general: In patch-clamp work, channel activity is measured electrically.

In the next data set the test system is SK channels. The note with it: cited from earlier work.
The conditions of data set [2]: mice; cited from earlier work.
For data set [3] the following is noted: cited from earlier work.
For data set [4] the following is noted: rats; cited from earlier work.
For data set [5] the following is noted: cited from earlier work; for lowering of mean arterial pressure: 30 mg/kg.
A short description of data set [6]: IV bolus in mouse with systolic heart failure, left ventricular pressure-volume recording. It counts as in vivo. The note with it: IV bolus 3 mg/kg, wildtype mouse with heart failure (FAC 38%). The protocol: FIG. 22 depicts data of a wildtype mouse with heart failure (FAC 38%) given an IV bolus of SKA-31 (3 mg/kg) through the left internal jugular vein during simultaneous recording of left ventricular pressure and volume using a Milar conductance catheter inserted through the right carotid artery.
In this experiment, a wildtype mouse with heart failure (FAC 38%) was given an IV bolus of SKA-31 (3 mg/kg) through the left internal jugular vein during simultaneous recording of left ventricular pressure and volume using a Milar conductance catheter inserted through the right carotid artery. (FIG. 22)
BK channel deficient mice and wildtype littermates developed an ischemic cardiomyopathy after surgical ligation of the left anterior descending coronary artery. Systolic heart failure was confirmed six weeks later by noting a fractional area of change (FAC) of 40% or lower on 2D echocardiography (Visualsonics Vevo 2100). […] Continuous LV pressure and volume measurements were recorded (MPVS Ultra by Milar with PowerLab 4/35 and LabChart by ADInstruments). After stable baseline LV measurements were recorded, vehicle (Cremophor EL made by Calbiochem) was infused intravenously into the cannulated internal jugular vein as a single bolus in the same volume later used to deliver an intravenous bolus of SKA-31 (Tocris) at 3 mg/kg. […]

Another data set deals with SK3 and IK1 channels. Put plainly: Electrophysiology of freshly isolated mesenteric endothelial cells. It counts as cell-based, mice. An excerpt: FIGS. 18A-18D collectively are graphs showing electrophysiological characterization of SK channels in freshly isolated mesenteric endothelial cells.
Endothelial cells were isolated from third-order mesenteric arteries of mice using enzymatic digestion followed by labeling the endothelial cells with CD34 antibody-labeled magnetic beads, collecting them using a magnet and then releasing them from the beads by competition. To measure both SK3 and IK1 currents, the cells were dialyzed with KCl-solution containing 3 μM free Ca^2+ and currents elicited using voltage ramps and by the activator NS-309 (see FIGS. 18A-18B).

Data set [7] concerns the target T2, BK channels (Mus musculus, UniProt Q08460).
T2 construct: from tissue; host or cells: third-order mesenteric resistance arteries of mice (sham and heart failure)
The data set is described as follows: Myogenic tone of pressurized mesenteric arteries with BK channel blocker. Set-up: species or system mice. The note with it: for increase of constriction: 120 mm Hg. The protocol: FIG. 11A is a graph showing the effect of paxilline on myogenic tone measured at 120 mm Hg. Constriction induced by paxilline was calculated as the difference between myogenic tone (%) pre- and post-paxilline. Mean+s.e.m. No heart failure (no HF): N=6 vessels; heart failure (HF): N=5 vessels. ** P<0.01, Student's t test. FIG. 11B is a graph showing that myogenic tone is equivalent in paxilline-treated vessels from control mice and mice with heart failure. Mean+s.e.m. No HF: N=6 vessels; HF: N=5 vessels.
If HF alters myogenic tone by reducing BK channel expression and currents, then the effect of paxilline should be reduced. […] Inhibiting BK channels with paxilline in sham-treated (no HF) control mice caused an increase in myogenic tone, approximating the increased myogenic tone of vessels isolated from HF mice (see FIG. 11B).

For data set [8] the following is noted: two hours after IP injection of 100 μg (5 μg/g); cited from earlier work.
The conditions of data set [9]: cited from earlier work. The source holds these as a separate data set.
The target of data set [10] is T2, BK channels. The data set is described as follows: Whole cell K+ currents in freshly isolated mesenteric VSM cells. The note with it: control VSM cells, 2 μM Ang II. It counts as cell-based, mice. As for the experimental part: Whole cell K^+ currents at baseline (black trace) and after exposure to 1 μM paxilline (red trace in FIG. 14A) or 2 μM Ang II (blue trace in FIG. 14B). The intrapipette solution contained 9 μM Ca^2+.
Conversely, Ang II (2 μM) or phenylephrine (10 μM) may differentially modulate channel function in VSM cells isolated from HF mice. Ang II inhibits BK channel function through its effects on PKC, c-Src and Nox (Lu et al. 2010). Ang II causes less inhibition if BK channels are already modified by PKC, c-Src or Nox pathways, as compared to the effect on BK channels from control VSM cells, in which Ang II suppressed BK current by 50% (see FIG. 14B).
Two determinants of BK activity are used: STOCs and whole-cell current density. BK currents are a very large fraction of the total K^+ currents in freshly isolated mesenteric VSM cells (see FIG. 14A). […] PKCα and PKCδ may be the relevant PKC isoforms, which are further delineated using specific inhibitors.

[11] abbreviates: mesenteric arteries from HF mice.
The mark [12] stands for this setting: mesenteric arteries from mice without HF.

Like-named read-outs stand apart in the source and are kept apart here.

T2 sequence (Q08460 whole entry): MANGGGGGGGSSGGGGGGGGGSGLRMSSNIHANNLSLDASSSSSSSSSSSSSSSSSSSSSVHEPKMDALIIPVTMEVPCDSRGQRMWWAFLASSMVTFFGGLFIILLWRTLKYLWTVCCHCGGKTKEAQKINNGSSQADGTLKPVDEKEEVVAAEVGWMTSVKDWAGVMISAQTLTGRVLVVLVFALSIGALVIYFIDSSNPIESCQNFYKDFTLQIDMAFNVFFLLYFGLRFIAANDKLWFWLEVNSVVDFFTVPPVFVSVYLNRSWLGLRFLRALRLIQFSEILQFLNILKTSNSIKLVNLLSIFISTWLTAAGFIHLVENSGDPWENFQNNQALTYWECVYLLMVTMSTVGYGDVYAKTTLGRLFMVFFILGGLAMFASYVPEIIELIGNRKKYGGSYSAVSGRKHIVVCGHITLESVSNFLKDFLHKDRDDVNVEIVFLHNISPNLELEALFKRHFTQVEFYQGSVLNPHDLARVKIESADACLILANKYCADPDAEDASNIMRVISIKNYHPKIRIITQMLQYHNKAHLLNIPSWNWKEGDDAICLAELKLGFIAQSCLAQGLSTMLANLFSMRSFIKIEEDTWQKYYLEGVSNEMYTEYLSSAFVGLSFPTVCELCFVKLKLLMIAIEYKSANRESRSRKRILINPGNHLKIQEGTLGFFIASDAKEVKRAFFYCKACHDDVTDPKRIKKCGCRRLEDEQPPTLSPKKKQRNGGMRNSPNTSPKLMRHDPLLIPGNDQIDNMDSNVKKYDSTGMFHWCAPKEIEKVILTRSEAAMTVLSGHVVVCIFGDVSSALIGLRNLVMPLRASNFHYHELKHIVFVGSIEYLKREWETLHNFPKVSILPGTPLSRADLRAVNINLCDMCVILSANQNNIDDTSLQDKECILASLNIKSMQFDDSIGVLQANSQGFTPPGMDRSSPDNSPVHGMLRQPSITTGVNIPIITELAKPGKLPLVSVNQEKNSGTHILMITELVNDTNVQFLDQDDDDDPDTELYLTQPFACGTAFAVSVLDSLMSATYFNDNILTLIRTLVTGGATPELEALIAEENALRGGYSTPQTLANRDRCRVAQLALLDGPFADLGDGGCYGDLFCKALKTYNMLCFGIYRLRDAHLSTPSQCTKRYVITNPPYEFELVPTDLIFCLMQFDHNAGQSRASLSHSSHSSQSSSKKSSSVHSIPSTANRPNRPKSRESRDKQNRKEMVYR
T2 sequence (Q8CAE3 whole entry partner): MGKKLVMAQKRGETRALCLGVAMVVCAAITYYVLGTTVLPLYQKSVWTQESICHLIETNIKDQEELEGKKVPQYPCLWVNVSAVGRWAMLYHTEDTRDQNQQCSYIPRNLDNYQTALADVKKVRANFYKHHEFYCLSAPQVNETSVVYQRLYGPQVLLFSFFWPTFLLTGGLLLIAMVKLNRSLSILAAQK

Turning to `Clc1ccccc1C(c1ccccc1)(c1ccccc1)n1cccn1` [TRAM-34], the “effect on SKA-31 (1 μM)-mediated vasodilation” value in data set [1] (intraluminal 1 μM TRAM-34 and 100 nM apamin together, phenylephrine-constricted vessels) is recorded as “prevented”.
As to `COc1ccc2c(ccc3sc(N)nc32)c1` [XX-03-52], the “Note: rank of activity” value on human KCNN3 (SK3) is 2nd most active.
Consider `Nc1nc2c(ccc3cc(Cl)ccc32)s1` [XX-03-56], for which the “Note: rank of activity” value on human KCNN3 (SK3) is on record as “Most active”.
As to `Nc1nc2c(ccc3ccccc32)s1` [XX-03-58, naphtha[1,2-d]thiazol-2-ylamine], the “EC50 of SK channel activation” value in the data set on SK channels is on record as “low μM range”. Also, the acute toxicity result in [2] and in [4] was “no acute toxicity” throughout. For the same compound, the dilation of vessels entry was “effectively dilated the vessels” in data set [1] (intraluminal 250 nM or 1 μM, vessels of control mice and mice with HF); “caused dilatation of vessels from β1 null mice to a similar extent as vessels from WT mice” in [1] (phenylephrine-constricted vessels of BK β1 null mice). Further, the free plasma level in [3] (10 mg/kg IP, 24 h) is 300 nM. Moreover, the plasma concentration in data set [3] (10 mg/kg IP, mice, 2 h) is 5500 nM; in data set [3] (10 mg/kg IP, mice, 4 h), 1400 nM; in data set [3] (10 mg/kg IP, mice, 24 h), 500 nM. The free in plasma in data set [3] (mice) was 61%. The plasma protein-bound in data set [3] (mice) is reported as 39%. Besides, the results for the “lowering of mean arterial pressure” value in data set [5] (mice with hypertension) and in data set [5] (normal mice) were 12 mm Hg and 6 mm Hg, respectively. For the same compound, the “lowering of blood pressure” value in [5] (single IP injection 10 mg/kg, at 24 h) is 4 mm Hg. In addition, the cardiac work entry in [6] is recorded as “improves cardiac work”.
Consider `Cc1ccc2ccc3sc(N)nc3c2c1` [XX-03-64], for which the “Note: rank of activity” value at human KCNN3 (SK3) is “least active”.
On to `C[N+](C)(C)CCOC(N)=O` [carbachol], for which, in the data set on SK3 and IK1 channels (carbachol 2 μM), the “endothelial cell membrane potential” value is listed as “hyperpolarization of endothelial cell membrane potential”.
`CC(C)(O)[C@H]1O[C@H]2CC[C@@]3(C)[C@@](O)(CC[C@H]4Cc5c([nH]c6ccccc56)[C@@]43C)C2=CC1=O` [paxilline]: on BK channels [7] (setting [11]), the “relative increase in myogenic tone” value is 3% and the increase of constriction worked out at 0.9%. On BK channels [7] (setting [12]), the “relative increase in myogenic tone” value is recorded as 51.9% and the increase of constriction came out at 10.9%.
In the case of `CC(=O)c1c(O)c(C)c(O)c(Cc2c(O)c3c(c(C(=O)/C=C/c4ccccc4)c2O)OC(C)(C)C=C3)c1O` [rottlerin, Rottlerin], the plasma level in [8] is 2900 ng/mL.
Consider NS-309, for which the “activation of SK/IK channels” value with SK3 and IK1 channels (5 μM NS-309) is listed as “reversible NS-309 (5 μM) activation of SK/IK channels”. Also, in the data set on SK3 and IK1 channels (NS309), the “endothelial cell membrane potential” value is “caused hyperpolarization of the endothelial cell membrane potential”. Besides, the half-life entry in data set [9] was “extremely short half-life”.
In the case of “angiotensin II (DRVYIHPF; Angiotensin-2; UniProt P01019 25-32, looked up) [Ang II, circulating angiotensin II]”, the “suppression of BK current” value in the data set with BK channels [10] is on record as 50%.
